# Reference: the OligoGym collection
# Several values for one entry are separate records, joined by “and”; a condition that tells them apart may be missing. Identical values can stand only once. After the bases stand the sugars from the 5' end (letter, count) and the backbone: PS all phosphorothioate, else s phosphorothioate and o phosphodiester by linkage. Methylation of C is not given here. e = 2'-O-(2-methoxyethyl) (MOE); k = constrained ethyl (cEt); d = 2'-deoxy (DNA)
# Target: MALAT1
# Conditions: ASO, A431, 0.005 µM
row,Sequence,target mRNA inhibition
1,"ATGACGCAATTCTCCC (sugars k3 d10 k3, PS)",15%
2,"CAGCTTATGGAACTTG (sugars k3 d10 k3, PS)",-33%
3,"TGCATCGAGGTGAGGG (sugars k3 d10 k3, PS)",21%
4,"TATAAGGTCAATAGTG (sugars k3 d10 k3, PS)",38%
5,"ACCAACCCCCAGTTCA (sugars k3 d10 k3, PS)",28%
6,"GCTGTCAATTAATGCT (sugars k3 d10 k3, PS)",24%
7,"CTTGTGTTCTCTTGAG (sugars k3 d10 k3, PS)",13%
8,"ACTGATCACTTTAGAG (sugars k3 d10 k3, PS)",36%
9,"GGTTTTAGTCACTGGA (sugars k3 d10 k3, PS)",85% and 95%
10,"GCATTGGAGATCAGCT (sugars k3 d10 k3, PS)",11%
11,"CCCCAACTAAACATAC (sugars k3 d10 k3, PS)",26%
12,"GAAGCATACCTTAACA (sugars k3 d10 k3, PS)",5%
13,"TCCAGCATAAAGCTGA (sugars k3 d10 k3, PS)",-9%
14,"CCTTTTCTAACATAGT (sugars k3 d10 k3, PS)",23%
15,"TAGCTTGGCCAAGTCT (sugars k3 d10 k3, PS)",19%
16,"CTATATTTAAGGCCTT (sugars k3 d10 k3, PS)",26%
17,"GCTCCTGACAAATTAT (sugars k3 d10 k3, PS)",17%
18,"TGAGTGTTCCTGCATG (sugars k3 d10 k3, PS)",36%
19,"CAAACTACACATGCAG (sugars k3 d10 k3, PS)",6%
20,"TGCGCTGGCTGCCTCA (sugars k3 d10 k3, PS)",25%
21,"TGAACCCCGTCCTGGA (sugars k3 d10 k3, PS)",3%
22,"CTTCTCTAACCCAGTT (sugars k3 d10 k3, PS)",15%
23,"CACAACAATTTAGAGC (sugars k3 d10 k3, PS)",-17%

row,Sequence,target mRNA inhibition
1,"GATACCTGTCTGAGGC (sugars k3 d10 k3, PS)",33%
2,"CAGGTCATCTATTCAC (sugars k3 d10 k3, PS)",51% and 72%
3,"TCTGCGGCCCCCCAGT (sugars k3 d10 k3, PS)",25%
4,"CATTAAAGAGTGTTCG (sugars k3 d10 k3, PS)",34%
5,"ATCTTAACTCAAAGTC (sugars k3 d10 k3, PS)",39%
6,"AAAGATTTGAGCTGCA (sugars k3 d10 k3, PS)",-4%
7,"ATTCTTTTCTTCGCCT (sugars k3 d10 k3, PS)",48%
8,"ACATTCAAGCTGAACT (sugars k3 d10 k3, PS)",-5%
9,"TAAATTGGTTCTGGTC (sugars k3 d10 k3, PS)",49%
10,"CCTTTACACCTCAGTA (sugars k3 d10 k3, PS)",13%
11,"AGGTCATCTATTCACA (sugars k3 d10 k3, PS)",39%
12,"AGACCCCTGACTTTCT (sugars k3 d10 k3, PS)",22%
13,"TGAGAACTGCTCTAGT (sugars k3 d10 k3, PS)",35%
14,"AGCATTGGAGATCAGC (sugars k3 d10 k3, PS)",36%
15,"CACCTTGAGTCATTTG (sugars k3 d10 k3, PS)",37%
16,"CTAAACAATTACCTAA (sugars k3 d10 k3, PS)",3%
17,"AGAGAACCACACACTA (sugars k3 d10 k3, PS)",28%
18,"CCAAGACAGCCACACG (sugars k3 d10 k3, PS)",10%
19,"TATTTAGAGGGCCTCT (sugars k3 d10 k3, PS)",34%
20,"GCATTTACTTGCCAAC (sugars k3 d10 k3, PS)",11%
21,"AGTGTTCCTGCATGTA (sugars k3 d10 k3, PS)",31%
22,"ATTTATAGACGGAGAA (sugars k3 d10 k3, PS)",9%
23,"TGACCCTACTGAAGAG (sugars k3 d10 k3, PS)",21%

row,Sequence,target mRNA inhibition
1,"TACCTTAACATCTTGT (sugars k3 d10 k3, PS)",14%
2,"TTAATGTAGTGTAACA (sugars k3 d10 k3, PS)",30%
3,"GACACTTTCCTTGCCC (sugars k3 d10 k3, PS)",48%
4,"GAAGCCCCTGCGCTGG (sugars k3 d10 k3, PS)",23%
5,"ATAATCTCCCACCTGT (sugars k3 d10 k3, PS)",17%
6,"AAAAAAGGCTTAGCGC (sugars k3 d10 k3, PS)",0%
7,"CTTAGTTGGCATCAAG (sugars k3 d10 k3, PS)",31%
8,"CTTGTCTTAGCTTGTT (sugars k3 d10 k3, PS)",71% and 61%
9,"CGCCAACACAGTTTGC (sugars k3 d10 k3, PS)",12%
10,"TACGAAAGTCCTTCAC (sugars k3 d10 k3, PS)",35%
11,"ATCATATTTTAAACGG (sugars k3 d10 k3, PS)",32%
12,"GCTAGTCCTCAGGATT (sugars k3 d10 k3, PS)",47%
13,"CTTAAAGCACTTCTTG (sugars k3 d10 k3, PS)",-34%
14,"TGACGCAATTCTCCCT (sugars k3 d10 k3, PS)",33%
15,"CAAACGAAACATTGGC (sugars k3 d10 k3, PS)",31%
16,"TCAGACAAGATTCATG (sugars k3 d10 k3, PS)",31%
17,"TGCCTTTAGGATTCTAGACA (sugars e5 d10 e5, PS)",39% and 51%
18,"CCCTGTTAAGACCATC (sugars k3 d10 k3, PS)",21%
19,"TGGAAGCTCCTTCTAT (sugars k3 d10 k3, PS)",-19%
20,"ACAGAGCTGCTCCCCG (sugars k3 d10 k3, PS)",18%
21,"TCTGATAACGAAGAGA (sugars k3 d10 k3, PS)",21%
22,"CTCACAAAACCCCCGG (sugars k3 d10 k3, PS)",18%
23,"CCACTGGTGAATTCAA (sugars k3 d10 k3, PS)",55%

row,Sequence,target mRNA inhibition
1,"GCTCACAAGGCAAATC (sugars k3 d10 k3, PS)",-4%
2,"GTAATTACTCTTGATC (sugars k3 d10 k3, PS)",47%
3,"GAGTCATTTGCCTTTA (sugars k3 d10 k3, PS)",73% and 48%
4,"ACAGGAACAAGTCCTA (sugars k3 d10 k3, PS)",10%
5,"GCACTTATCCCTAACA (sugars k3 d10 k3, PS)",58% and 40%
6,"TCTCCCACCTGTCTAA (sugars k3 d10 k3, PS)",23%
7,"GCCCGCACGGAAATTT (sugars k3 d10 k3, PS)",23%
8,"TGAGATGGACATTGCC (sugars k3 d10 k3, PS)",74% and 92%
9,"TGCACTCGCTCCTTCC (sugars k3 d10 k3, PS)",33%
10,"TTTACAGAAGTCTCGG (sugars k3 d10 k3, PS)",-31%
11,"TCATCCTACCACTCCC (sugars k3 d10 k3, PS)",34%
12,"TGCCAATATTTGCCCC (sugars k3 d10 k3, PS)",20%
13,"CTGATTATCCTGATAT (sugars k3 d10 k3, PS)",33%
14,"GATAGTTCAGGGCTTT (sugars k3 d10 k3, PS)",10%
15,"GCCTGGTTAGGTATGA (sugars k3 d10 k3, PS)",21%
16,"GACAAGGCAGTTATAT (sugars k3 d10 k3, PS)",1%
17,"ATTCCTTATTTAGAGG (sugars k3 d10 k3, PS)",-11%
18,"GATTAGAGAAGAATCC (sugars k3 d10 k3, PS)",14%
19,"CACCCAGAAGTGTTTA (sugars k3 d10 k3, PS)",-4%
20,"GGCCAAGTCTGTTATG (sugars k3 d10 k3, PS)",-1%
21,"AAAGCGAGTTCAAGTG (sugars k3 d10 k3, PS)",-12%
22,"TTTAGAGGGCCTCTAT (sugars k3 d10 k3, PS)",17%
23,"GTTCAAGTGGCCTTTT (sugars k3 d10 k3, PS)",22%

row,Sequence,target mRNA inhibition
1,"ATTTACTTGCCAACAG (sugars k3 d10 k3, PS)",47%
2,"GGCAAACGAAACATTG (sugars k3 d10 k3, PS)",35%
3,"TAACTAGGCTTTAAAT (sugars k3 d10 k3, PS)",14%
4,"GTCAATTAATGCTAGT (sugars k3 d10 k3, PS)",41%
5,"TGCCTACCACTCTAAG (sugars k3 d10 k3, PS)",-10%
6,"TACCGCACAGCTCGGG (sugars k3 d10 k3, PS)",20%
7,"GAATCTCAGGGTTATG (sugars k3 d10 k3, PS)",57% and 76%
8,"GAGTGGTTTTATCTAA (sugars k3 d10 k3, PS)",31%
9,"GTGGAAAGATTTGAGC (sugars k3 d10 k3, PS)",17%
10,"ATTGTTTCATCCTACC (sugars k3 d10 k3, PS)",22%
11,"ATACCTTAACATCTTG (sugars k3 d10 k3, PS)",43%
12,"CATAGTTCAACCCACC (sugars k3 d10 k3, PS)",35%
13,"AACAGCACAGCGGTAC (sugars k3 d10 k3, PS)",2%
14,"TTGCTTACACACAACT (sugars k3 d10 k3, PS)",18%
15,"ATTATACATCAAGGAT (sugars k3 d10 k3, PS)",17%
16,"TAACCAACTTCCCCTT (sugars k3 d10 k3, PS)",16%
17,"TAATGTCAGCCCAGTA (sugars k3 d10 k3, PS)",7%
18,"TACGACTGCTTAAAAC (sugars k3 d10 k3, PS)",5%
19,"AGAACAACTCGCATCA (sugars k3 d10 k3, PS)",12%
20,"GGAATTCGATCACCTT (sugars k3 d10 k3, PS)",29%
21,"AGCCCCCCACGGCCCG (sugars k3 d10 k3, PS)",27%
22,"AGAGCATTGGAGATCA (sugars k3 d10 k3, PS)",20%
